Experimental data from article PMC4604408, “Targeting the Parasite's DNA with Methyltriazenyl Purine Analogs Is a Safe, Selective, and Efficacious Antitrypanosomal Strategy” (Antimicrobial Agents and Chemotherapy, 2015).
“Also recorded” adds a separate entry of the source. Like-named read-outs stand apart in the source and are kept apart here.

Legend:
[1] = biological target: T. brucei H2 (hypoxanthine transporter 2 of T. brucei brucei); set-up: method as in PMID 9364969; details: natural substrates; read-out: Transport (Ki value) T. brucei H2; cited from earlier work
[2] = biological target: T. brucei H2 (hypoxanthine transporter 2 of T. brucei brucei); assay type: cell-based; details: read-out: Transport (Ki value) T. brucei H2
[3] = tested on: HEK293 (human embryonic kidney 293T cells); assay: cells; details: read-out: In vitro activity (EC50) HEK293
[4] = tested on: T. brucei brucei 427 tbat1^−/−; assay: microbe, parasite or virus in culture; assay type: cell-based; details: for EC50: Trypanosoma brucei, read-out: In vitro activity (EC50) T. brucei brucei 427 tbat1^−/−
[5] = tested on: T. brucei brucei WT (strain 427); assay: microbe, parasite or virus in culture; assay type: cell-based; details: for SI, in vitro selectivity index: EC50(HEK)/EC50(T. brucei brucei WT); for EC50: Trypanosoma brucei, read-out: In vitro activity (EC50) T. brucei brucei WT
Tbb msh2+/+ = assay: microbe, parasite or virus in culture; assay type: cell-based, Trypanosoma brucei; details: read-out: Tbb msh2+/+ (EC50; µM) AVG
Tbb msh2-/- = assay: microbe, parasite or virus in culture; assay type: cell-based, Trypanosoma brucei; details: for EC50: read-out: Tbb msh2-/- (EC50; µM) AVG
Tbb msh2+/- = assay: microbe, parasite or virus in culture; assay type: cell-based, Trypanosoma brucei; details: read-out: Tbb msh2+/- (EC50; µM) AVG
[6] = tested on: bloodstream-form T. brucei; assay: potency in Creek's minimal medium with inosine or hypoxanthine as purine source; assay type: cell-based
physchem = details: buffer
[7] = tested on: HEK293 (human embryonic kidney 293T cells)
[8] = tested on: T. b. rhodesiense STIB 900; assay: microbe, parasite or virus in culture; assay type: cell-based; details: Trypanosoma brucei, read-out: Trypanosoma brucei rhodesiense EC50
P. falciparum K1 strain = assay: microbe, parasite or virus in culture; assay type: cell-based; details: Plasmodium falciparum, K1, read-out: Plasmodium falciparum EC50
[9] = tested on: T. brucei rhodesiense (STIB 900); assay: stringent mouse model of trypanosomiasis; assay type: in vivo; details: female NMRI mice, 50 mg/kg i.p. for four consecutive days from day 3 postinfection
Method: The experiments were performed essentially as described previously ([26]). Female NMRI mice were infected intraperitoneally (i.p.) with 10^4 bloodstream-form T. brucei brucei (strain STIB 795) or 3 × 10^3 T. brucei rhodesiense (strain STIB 900). Experimental groups of four mice were treated i.p. with test drug daily on four consecutive days starting from day 3 postinfection. A control group was infected but remained untreated. The tail blood of each mouse was checked for parasitemia up to 60 days postinfection; mice were culled when parasitemia was >10^8 trypanosomes/ml of blood. Surviving and aparasitemic mice at day 60 were considered cured and were euthanized. All protocols and procedures used in this study were reviewed and approved by the local veterinary authorities of the Canton Basel-Stadt, Switzerland.
Figure S4. Methyltriazenyl purine 1 has a high cure rate in acute T. b. rhodesiense infection in vivo. Kaplan–Meier survival plot for female NMRI mice (n = 4 per group) after infection with T. b. rhodesiense (STIB900) (inoculum 3×10^3 parasites). Intraperitoneal injection with 1 dissolved in DMSO started 3 days after infection at a single dose of 50 mg/kg

BF T. brucei brucei = assay: TUNEL assay for DNA strand breaks in trypanosomes; assay type: cell-based; details: 3 μM, 24 h
[10] = tested on: freshly isolated rat hepatocytes; assay: hepatotoxicity on freshly isolated rat hepatocytes; assay type: cell-based; details: 100 µM, up to 120 min
Method: page 11: Figure S3 A B C 125 125 125 100 100 100 75 75 75 50 50 50 25 Contr ol 25 Contr ol 25 Contr ol 0 + NA1371 0 +NA1371 0 +NA1371 0 30 60 90 120 0 30 60 90 120 0 30 60 90 120 […] ) Figure S3. […] (A) Hepatocytes from male Sprague-Dawley rats were isolated as described (4, 5) and hepatotoxicity assays were performed as described (6). […] or left untreated. Cell viability was determined by a Trypan blue exclusion test. Values are normalized to t=0 min (%). (B) The reduced glutathione (GSH) content of hepatocytes was determined by an O-phthaldehyde fluorimetric test. […] (C) The total protein content of hepatocytes was determined by a Lowry assay. […]

BF T. brucei [11] = assay: growth curves of treated bloodstream-form trypanosomes; assay type: cell-based; details: 15 µM for 72 h in Fig. S7
Method: Given its promising antiparasitic efficacy in vitro and in vivo, we selected lead compound 1 for further antitrypanosomal mechanism-of-action studies. […] We analyzed the DNA content of these cells over 24 h by flow cytometry (Fig. 3B; see also Fig. S7 in the supplemental material). After 4 h of exposure to 15 μM compound 1, we observed a decrease in the proportion of cells with normal diploid (2C) DNA content, whereas an aberrant population of cells started to appear with a DNA content between 2C and 4C. […] We also monitored the karyotype distribution of BF T. brucei over time (see Fig. S8 in the supplemental material), using DAPI staining to visualize nuclei (N) and kinetoplasts (K). Within the first 8 h (the normal time to complete one cell cycle) of exposure to compound 1, we observed a significant increase in 1N2K cells, with a coincident decrease in 1N1K and 2N2K. […]
FIG 3 Methyltriazenyl purines cause cell cycle arrest in the G2/M phase in T. brucei. […] (b) DNA content of BF T. brucei in the presence or absence of 15 μM compound 1, as determined by propidium iodide staining of fixed cells and measured by fluorescence-activated cell sorting (FACS). […]
Figure S7. […] B) Long term growth curve of bloodstream form T.b. brucei s427 cultures (seeded at 5 × 10^5 cells/mL) exposed to 15 µM of 1 (closed squares) or vehicle only (open circles) monitored for 72 hours. […]

BF T. brucei [12] = assay: DNA content by propidium iodide staining and flow cytometry; assay type: cell-based; details: 15 μM, 24 h
[13] = tested on: T. brucei brucei (STIB 795); assay: mouse model of acute trypanosomiasis; assay type: in vivo; details: female NMRI mice, 50 mg/kg i.p. daily for 4 days from day 3 postinfection
[14] = spontaneous triazene hydrolysis by UV spectroscopy; details: 50 µM in PBS at 37 °C, physiological conditions, n=2
[15] = assay type: in vivo; details: up to 10 × 50 mg/kg i.p. daily
[16] = tested on: His– S. typhimurium strains TA98 and TAMix; assay: Ames II mutagenicity assay; assay type: cell-based, Salmonella typhimurium; details: before (–S9) and after (+S9) metabolic activation, 62.5 µM to 2 mM
[17] = inhibition of 0.05 μM [3H]hypoxanthine uptake, 60 s, mean ± SEM, n ≥ 3
[18] = Creek's minimal medium, same concentration of inosine or hypoxanthine

| SMILES | EC50 [3] | EC50 [4] | SI, in vitro selectivity index [5] | EC50 [5] | EC50 (Tbb msh2+/+; Trypanosoma brucei) | EC50 (Tbb msh2-/-; Trypanosoma brucei) | EC50 (Tbb msh2+/-; Trypanosoma brucei) | other results |
| --- | --- | --- | --- | --- | --- | --- | --- | --- |
| Nc1nc2nc[nH]c2c(=O)[nH]1 [Guanine] |  |  |  |  |  |  |  | Ki [1]: 0.36 ± 0.18 µM |
| CN(N=Nc1nc(N)c2[nH]cnc2n1)C(=O)Oc1ccccc1 [Compound 6] | > 100 µM | 10.7 ± 0.4 µM | >24 | 10.4 ± 0.5 µM |  |  |  | Ki [2, 17]: 0.46 ± 0.08 µM |
| N.N.[Cl][Pt][Cl] [Cisplatin] |  |  |  |  |  |  |  | EC50 (Tbb msh2+/+): 13.4 µM; EC50 (Tbb msh2-/-): 13.6 µM; EC50 (Tbb msh2+/-): 17.7 µM |
| Cc1ccc(C(=O)Nc2ccc(S(=O)(=O)O)c3cc(S(=O)(=O)O)cc(S(=O)(=O)O)c23)cc1NC(=O)c1cccc(NC(=O)Nc2cccc(C(=O)Nc3cc(C(=O)Nc4ccc(S(=O)(=O)O)c5cc(S(=O)(=O)O)cc(S(=O)(=O)O)c45)ccc3C)c2)c1 [suramin] |  |  |  |  |  |  |  | sensitivity (EC50) in medium with inosine compared to hypoxanthine as purine source [6, 18]: not significantly different |
| CN(N=Nc1nc(O)c2[nH]cnc2n1)C(=O)Oc1ccccc1 [Compound 2] | > 250 µM | 1.21 ± 0.19 µM | >312 | 0.8 ± 0.07 µM | 2.3 µM | 6.8 µM | 4.3 µM | half-life at 50 µM (physchem): 5.6 ± 0.3 h; Ki [2, 17]: 0.2 ± 0.06 µM; potency against cells with impaired or lost MSH2 activity (Tbb msh2-/-): reduced potency |
| Cn1nnc2c(C(N)=O)ncn2c1=O [TMZ, temozolomide] |  |  |  |  | 95 µM | 173 µM | 204 µM | potency against cells with impaired or lost MSH2 activity (Tbb msh2-/-): reduced potency |
| CC(=O)N(C)/N=N/c1nc(OCc2ccccc2)c2nc[nH]c2n1 [Compound 9] |  |  |  |  |  |  |  | Ki [2]: 5.8 ± 0.01 µM |
| Nc1ncnc2[nH]cnc12 [Adenine] |  |  |  |  |  |  |  | Ki [1]: 3.2 ± 1.1 µM |
| N=C(N)c1ccc(/N=N/Nc2ccc(C(=N)N)cc2)cc1 [DIM, diminazene, reference compound] |  | 7.9 ± 0.7 µM |  | 0.26 ± 0.05 µM | 0.5 µM | 0.68 µM | 0.64 µM | fold lower activity against tbat1^−/− cells than wild type ([4]; tbat1^−/− versus wild-type): 30 fold |
| O=c1[nH]cnc2nc[nH]c12 [Hypoxanthine] |  |  |  |  |  |  |  | Ki [1]: 0.12 ± 0.03 µM |
| COS(C)(=O)=O [MMS, methyl methanesulfonate] |  |  |  |  | 48.9 µM | 46.7 µM | 57.2 µM |  |
| CCOC(=O)N(C)/N=N/c1nc(O)c2nc[nH]c2n1 [Compound 3] | > 250 µM | 2.86 ± 0.13 µM | >136 | 1.84 ± 0.08 µM |  |  |  | Ki [2]: 0.12 ± 0.03 µM |
| O=C(NN=Nc1nc(O)c2[nH]cnc2n1)Oc1ccccc1 [Compound 5] | > 250 µM | > 100 µM |  | > 100 µM | 192 µM | 168 µM | 166 µM | Ki [2, 17]: 0.09 ± 0.02 µM; toxicity to HEK293T cells (in words) [7]: did not show any toxic effects; antitrypanosomal potency against BF T. brucei in vitro (in words) [5]: did not show any toxic effects |
| CN(N=Nc1nc(O)c2[nH]cnc2n1)C(=O)Oc1ccc([N+](=O)[O-])cc1 [Compound 4] | > 250 µM | 157 ± 55 µM | >2 | 114 ± 34 µM |  |  |  | antitrypanosomal potency against BF T. brucei in vitro (in words) [5]: practically lost antitrypanosomal activity |
| N=C(N)c1ccc(OCCCCCOc2ccc(C(=N)N)cc2)cc1 [Pentamidine] |  |  |  |  | 0.011 µM | 0.004 µM | 0.011 µM | sensitivity (EC50) in medium with inosine compared to hypoxanthine as purine source [6, 18]: not significantly different |
| CN(/N=N/c1nc(OCc2ccccc2)c2nc[nH]c2n1)C(=O)Oc1ccccc1 [Compound 10] |  |  |  |  |  |  |  | Ki [2, 17]: 22.5 ± 9.2 µM; EC50 [8]: 8.9 µM; EC50 (P. falciparum K1 strain): > 10 µM |
| CC(=O)N(C)N=Nc1nc(O)c2[nH]cnc2n1 [Compound 1, 2-(3-acetyl-3-methyltriazen-1-yl)-6-hydroxypurine] | > 250 µM | 0.52 ± 0.08 µM | >595 | 0.42 ± 0.05 µM | 0.87 µM | 3.9 µM | 1.5 µM | Ki [2]: 0.59 ± 0.15 µM; cure rate [9]: 75%; increase in BrdU incorporation (DNA strand breaks) (BF T. brucei brucei): 2 fold; hepatotoxic effects, hepatocyte viability (Trypan blue exclusion) [10]: does not show toxic effects; also recorded: no hepatotoxic effects; total protein content of hepatocytes (Lowry assay) [10]: No protein loss; effect on culture proliferation (BF T. brucei [11]): Cell growth is arrested and the cells eventually die; also recorded: arrested in its proliferation; DNA content of treated cells (BF T. brucei [12]): majority of cells having an apparent 4C DNA content; potency against cells with impaired or lost MSH2 activity (Tbb msh2-/-): reduced potency; antitrypanosomal potency against BF T. brucei in vitro (in words) [5]: submicromolar; cure rate [13]: 100%; survival of treated mice [13]: > 60 days; hydrolysis half-life [14]: ~6.8 h; half-life at 50 µM ([14]; PBS, hydrolysis half-life): 6.8 ± 0.4 h; tolerability [15]: well tolerated; sensitivity (EC50) in medium with inosine compared to hypoxanthine as purine source [6]: higher; mutagenic activity in Ames II test [16]: negative (not mutagenic); also recorded: did not reveal any mutagenic activity |
| CN(N=Nc1nc(N)c2[nH]cnc2n1)C(=O)Oc1ccc([N+](=O)[O-])cc1 [Compound 7] | > 250 µM | 20.7 ± 4.6 µM | >13 | 19.4 ± 4.1 µM |  |  |  |  |
